Results: ChEMBL document CHEMBL1123515, “Bioisosteric prototype design of biaryl imidazolyl and triazolyl competitive histamine H2-receptor antagonists” (1986)

Columns and labels:
[1] = system: Canis familiaris; experiment: Maximum percent inhibition of acid output in penta gastrin-stimulated Heidenhain pouch dogs at a dose of 1 mg/kg, given intravenously (iv).; type: functional; settings: Canis lupus familiaris
[2] = biological target: Histamine H2 receptor (Cavia porcellus) (UniProt P47747); experiment: Histamine H2 receptor antagonistic activity was evaluated in guinea pig atrium.; type: functional, tissue-based; settings: Cardiac atrium
Sequence of Histamine H2 receptor (Cavia porcellus) (P47747 whole entry): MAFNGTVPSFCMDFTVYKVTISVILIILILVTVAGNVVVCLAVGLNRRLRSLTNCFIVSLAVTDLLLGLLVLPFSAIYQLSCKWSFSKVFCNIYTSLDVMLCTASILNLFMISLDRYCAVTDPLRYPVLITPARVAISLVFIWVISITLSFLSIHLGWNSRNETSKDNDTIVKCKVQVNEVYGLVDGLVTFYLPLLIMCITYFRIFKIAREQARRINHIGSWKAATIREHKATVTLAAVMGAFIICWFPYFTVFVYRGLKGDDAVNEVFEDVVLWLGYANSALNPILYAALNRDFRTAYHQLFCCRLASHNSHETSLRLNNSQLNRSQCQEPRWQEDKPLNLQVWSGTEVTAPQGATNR

[3] = system: Canis familiaris; experiment: Maximum percent inhibition of acid output in penta gastrin-stimulated Heidenhain pouch dogs at a dose of 10 mg/kg, given intravenously (iv).; type: functional; settings: Canis lupus familiaris
[4] = system: Canis familiaris; experiment: Effective dose on intravenous administration was evaluated for the inhibition of acid output in penta gastrin stimulated Heidenhain pouch dogs; type: functional; settings: Canis lupus familiaris
[5] = system: Canis familiaris; experiment: Maximum percent inhibition of acid output in penta gastrin-stimulated Heidenhain pouch dogs at a dose of 7 mg/kg, given intravenously (iv).; type: functional; settings: Canis lupus familiaris
[6] = system: Canis familiaris; experiment: Maximum percent inhibition of acid output in penta gastrin-stimulated Heidenhain pouch dogs at a dose of 5 mg/kg, given intravenously (iv).; type: functional; settings: Canis lupus familiaris
[7] = system: Canis familiaris; experiment: Effective dose on oral administration was evaluated for the inhibition of acid output in penta gastrin stimulated Heidenhain pouch dogs; type: functional; settings: Canis lupus familiaris
[8] = system: Canis familiaris; experiment: Maximum percent inhibition of acid output in penta gastrin-stimulated Heidenhain pouch dogs at a dose of 0.5 mg/kg, given intravenously (iv).; type: functional; settings: Canis lupus familiaris

SMILES: CCNc1cc(-c2n[nH]c(CC/N=C(\S)NC)n2)ccn1
- inhibition in vivo at 1 mg/kg [1]: 59%
- Kb [2]: 0.69 µM

SMILES: CCNc1cc(-c2n[nH]c(C/N=C(\NC)NC#N)n2)ccn1
- inhibition in vivo at 10 mg/kg [3]: 0%

SMILES: CCNc1cc(-c2n[nH]c(CCC/N=C(/S)NC)n2)ccn1
- inhibition in vivo at 1 mg/kg [1]: 20%

SMILES: N=C(N)Nc1nc(-c2c[nH]cn2)cs1
- inhibition in vivo at 1 mg/kg [1]: 95%

SMILES: CCNc1cc(-c2n[nH]c(N)n2)ccn1
- ED50 [4]: 0.87 mg/kg

SMILES: CCNc1cc(-c2n[nH]c(CC/N=C(/NC)NC#N)n2)ccn1
- inhibition in vivo at 7 mg/kg [5]: 0%
- Kb [2]: 1.24 µM

SMILES: CCNc1cc(-c2n[nH]c(CCCC/N=C(\S)NC)n2)ccn1
- inhibition in vivo at 5 mg/kg [6]: 27%

SMILES: C/N=C(\S)NCc1cc(-c2n[nH]c(N)n2)ccn1
- inhibition in vivo at 10 mg/kg [3]: 19%

SMILES: CCNc1cc(-c2c[nH]c(CC/N=C(\S)NC)n2)ccn1
- inhibition in vivo at 5 mg/kg [6]: 47%
- Kb [2]: 0.55 µM

SMILES: CN/C(=N\CCSCc1nc[nH]c1C)NC#N [CIMETIDINE]
- inhibition in vivo at 10 mg/kg [3]: 1.02%
- ED50 [7]: 1.32 mg/kg

SMILES: CCNc1cc(-c2c[nH]c(C/N=C(\NC)NC#N)n2)ccn1
- inhibition in vivo at 5 mg/kg [6]: 32%

SMILES: CCNc1cc(-c2c[nH]c(C/N=C(/S)NC)n2)ccn1
- inhibition in vivo at 5 mg/kg [6]: 54%

SMILES: CCNc1cc(-c2n[nH]c(CCCC/N=C(/NC)NC#N)n2)ccn1
- inhibition in vivo at 10 mg/kg [3]: 16%

SMILES: N=C(N)Nc1nc(-c2n[nH]c(N)n2)cs1
- inhibition in vivo at 1 mg/kg [1]: 58%

SMILES: Cc1n[nH]c(-c2csc(N=C(N)N)n2)n1
- inhibition in vivo at 1 mg/kg [1]: 50%

SMILES: CNC(=C[N+](=O)[O-])NCCSCc1ccc(CN(C)C)o1
- Kb [2]: 0.166 µM

SMILES: Cc1ncc(-c2csc(N=C(N)N)n2)[nH]1 [ZALTIDINE]
- inhibition in vivo at 0.5 mg/kg [8]: 90%
- ED50 [7]: 0.27 mg/kg
- Kb [2]: 0.018 µM

SMILES: CCNc1cc(-c2n[nH]c(C/N=C(/S)NC)n2)ccn1
- inhibition in vivo at 10 mg/kg [3]: 48%

SMILES: N=C(N)Nc1nc(-c2c[nH]c(N)n2)cs1
- inhibition in vivo at 1 mg/kg [1]: 96%
